From patent US20060069132A1, “Azolecarboxamide herbicides” (priority 2004, published 2006)

Tests used:
[1] = system: cocklebur; assay: Test B pre-/postemergence herbicide test; assay type: in vivo, Xanthium strumarium; details: for Cocklebur plant response rating: postemergence, visual rating, scale 0 (no effect) to 100 (complete control)
Outline: (§1)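 Plants compared with untreated controls 13–15 days post-treatment and given a visual 0–100 injury score. Applications: preemergence to seeds; postemergence at 1- to 4-leaf (2–18 cm); paddy species flooded, 2-leaf stage. Vehicle non-phytotoxic, surfactant included.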

[2] = system: barnyardgrass; assay: Test B flooded paddy test; assay type: in vivo, Echinochloa crus-galli; details: 1000 g ai/ha, visual rating, scale 0 to 100 (0 no effect, 100 complete control), 13 to 15 days
Outline: (§2)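 Formulated test chemicals went onto postemergence plants measuring 2 to 18 cm, at one to four leaves. For the paddy assay, species had reached two leaves. Scoring took place 13–15 days later by eye, relative to untreated plants, using 0 for no effect up to 100 for full control.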

[3] = system: blackgrass; assay: Test B postemergence herbicide test; assay type: in vivo, Alopecurus myosuroides; details: postemergence, visual rating, scale 0 (no effect) to 100 (complete control)
Outline: as §2

[4] = system: large crabgrass; assay: Test B pre-/postemergence herbicide test; assay type: in vivo, Digitaria sanguinalis; details: for Crabgrass, Large plant response rating: postemergence, visual rating, scale 0 (no effect) to 100 (complete control)
Outline: (§3)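 Flooded paddy rice and barnyardgrass were treated at the 2-leaf stage; upland plantings received compound either on sown seed or on 1- to 4-leaf seedlings. All were kept 13–15 days in a greenhouse and scored visually, 0–100, relative to untreated plants.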

[5] = system: velvetleaf; assay: Test B pre-/postemergence herbicide test; assay type: in vivo, Abutilon theophrasti; details: for Velvetleaf plant response rating: postemergence, visual rating, scale 0 (no effect) to 100 (complete control)
Outline: as §3

[6] = system: Surinam grass; assay: Test B pre-/postemergence herbicide test; assay type: in vivo, Urochloa decumbens; details: for Surinam Grass plant response rating: postemergence, visual rating, scale 0 (no effect) to 100 (complete control)
Outline: as §3

[7] = system: rice; assay: Test C flooded paddy test; assay type: in vivo, Oryza sativa
Outline: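 Injury scored visually against controls on a 0 (no effect) to 100 (complete control) scale, 12 to 14 days after treatment in greenhouse. Flooded paddy plants treated at 2-leaf stage; postemergence plants at 1- to 4-leaf stage, 2 to 18 cm tall.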

[8] = system: giant foxtail; assay: Test B pre-/postemergence herbicide test; assay type: in vivo, Setaria faberi; details: for Foxtail, Giant plant response rating: postemergence, visual rating, scale 0 (no effect) to 100 (complete control)
Outline: as §3

[9] = system: small flower umbrella sedge; assay: Test B flooded paddy test; assay type: in vivo, Cyperus difformis; details: 1000 g ai/ha, visual rating, scale 0 to 100 (0 no effect, 100 complete control), 13 to 15 days
Outline: as §2

[10] = system: ducksalad; assay: Test B flooded paddy test; assay type: in vivo, Heteranthera limosa; details: 1000 g ai/ha, visual rating, scale 0 to 100 (0 no effect, 100 complete control), 13 to 15 days
Outline: as §2

[11] = system: ducksalad; assay: Test C flooded paddy test; assay type: in vivo, Heteranthera limosa
[12] = system: corn; assay: Test B pre-/postemergence herbicide test; assay type: in vivo, Zea mays; details: for Corn plant response rating: postemergence, visual rating, scale 0 (no effect) to 100 (complete control)
Outline: as §3

[13] = system: lambsquarters; assay: Test B pre-/postemergence herbicide test; assay type: in vivo, Chenopodium album; details: for Lambsquarters plant response rating: postemergence, visual rating, scale 0 (no effect) to 100 (complete control)
Outline: as §3

[14] = system: smallflower umbrella sedge; assay: Test C flooded paddy test; assay type: in vivo, Cyperus difformis
[15] = system: barnyardgrass; assay: Test B pre-/postemergence herbicide test; assay type: in vivo, Echinochloa crus-galli; details: for Barnyardgrass plant response rating: postemergence, visual rating, scale 0 (no effect) to 100 (complete control)
Outline: as §1

[16] = system: wild oat; assay: Test B postemergence herbicide test; assay type: in vivo, Avena fatua; details: postemergence, visual rating, scale 0 (no effect) to 100 (complete control)
Outline: as §2

[17] = system: rice; assay: Test B flooded paddy test; assay type: in vivo, Oryza sativa; details: 1000 g ai/ha, visual rating, scale 0 to 100 (0 no effect, 100 complete control), 13 to 15 days
Outline: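 After treating 2-leaf paddy plants or 2–18 cm postemergence plants (1 to 4 leaves) with formulated chemical, researchers kept them in a greenhouse for 13–15 days. Effects were judged visually versus controls: 0 indicates none, 100 total control.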

[18] = system: wheat; assay: Test B postemergence herbicide test; assay type: in vivo, Triticum aestivum; design: key to Wheat plant response rating: 0 = no effect, 100 = complete control; details: postemergence, visual rating, scale 0 (no effect) to 100 (complete control)
Outline: as §2

[19] = system: pigweed; assay: Test B pre-/postemergence herbicide test; assay type: in vivo, Amaranthus retroflexus; details: for Pigweed plant response rating: postemergence, visual rating, scale 0 (no effect) to 100 (complete control)
Outline: as §3

[20] = system: barnyardgrass; assay: Test C flooded paddy test; assay type: in vivo, Echinochloa crus-galli
Outline: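 Greenhouse test with a 12–14 day hold after application and visual comparison with controls. Emerged plants were 1- to 4-leaf stage (2–18 cm) when sprayed postemergence, and the paddy barnyardgrass was at 2 leaves under flooded conditions. 100 = complete control.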

[21] = system: morningglory; assay: Test B pre-/postemergence herbicide test; assay type: in vivo, Ipomoea coccinea; details: for Morningglory plant response rating: postemergence, visual rating, scale 0 (no effect) to 100 (complete control)
Outline: as §1

[22] = system: rice; assay: Test B pre-/postemergence herbicide test; assay type: in vivo, Oryza sativa; details: preemergence
Outline: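 Evaluation is visual, comparing treated with control plants on a scale where 0 means no effect and 100 means full control. Treatments were preemergence, or postemergence on seedlings 2–18 cm tall, and held 13–15 days in the greenhouse.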

[23] = 125 g ai/ha, 0 = no effect, 100 = complete control, preemergence
[24] = 500 g ai/ha, visual rating 0-100, 0 no effect, 100 complete control, preemergence
[25] = 62 g ai/ha, scale 0 to 100 (0 no effect, 100 complete control)
[26] = 125 g ai/ha, scale 0 to 100 (0 no effect, 100 complete control)
[27] = 250 g ai/ha, scale of 0 to 100, 0 is no effect, 100 is complete control
[28] = 500 g ai/ha, visual rating after 12 to 14 days, scale 0 to 100 (0 no effect, 100 complete control)

Q: How did the “Cocklebur plant response rating (0 to 100 scale)” value [1, 23] turn out when CCNC(=O)c1cccc(NC(=O)c2cn(C(C)(C)C)nc2CC)c1 [Compound 181] was run?
A: Its value is 10.

Q: What about the “Plant response rating, Cocklebur” value [1, 24] of the same compound?
A: Its value is 20.

Q: What about the “Cocklebur plant response rating” value ([1]; 125 g ai/ha) of the same compound?
A: The value was 20.

Q: What about the “Cocklebur plant response rating” value ([1]; 500 g ai/ha) of the same compound?
A: Its value is 70.

Q: What about the “Barnyardgrass plant response rating” value [2] of the same compound?
A: The value was 80.

Q: And the “Blackgrass plant response rating” value ([3]; 125 g ai/ha)?
A: Its value is 0.

Q: And the “Blackgrass plant response rating” value ([3]; 500 g ai/ha)?
A: Its value is 10.

Q: What about the “Crabgrass, Large plant response rating (0 to 100 scale)” value [4, 23] of the same compound?
A: The value was 50.

Q: What about the “Plant response rating, Crabgrass, Large” value [4, 24] of the same compound?
A: The value was 100.

Q: What about the “Crabgrass, Large plant response rating” value ([4]; 125 g ai/ha) of the same compound?
A: The value was 10.

Q: What about the “Crabgrass, Large plant response rating” value ([4]; 500 g ai/ha) of the same compound?
A: Its value is 20.

Q: What about the “Velvetleaf plant response rating (0 to 100 scale)” value [5, 23] of the same compound?
A: The value was 0.

Q: And the “Plant response rating, Velvetleaf” value [5, 24]?
A: Its value is 10.

Q: And the “Velvetleaf plant response rating” value ([5]; 125 g ai/ha)?
A: The value was 10.

Q: And the “Velvetleaf plant response rating” value ([5]; 500 g ai/ha)?
A: The value was 20.

Q: And the “Surinam Grass plant response rating (0 to 100 scale)” value [6, 23]?
A: Its value is 30.

Q: What about the “Plant response rating, Surinam Grass” value [6, 24] of the same compound?
A: Its value is 70.

Q: And the “Surinam Grass plant response rating” value ([6]; 125 g ai/ha)?
A: Its value is 20.

Q: And the “Surinam Grass plant response rating” value ([6]; 500 g ai/ha)?
A: The value was 20.

Q: And the “Rice plant response rating” value [7, 25]?
A: The value was 0.

Q: What about the “Rice plant response rating” value [7, 26] of the same compound?
A: The value was 0.

Q: What about the “Rice plant response rating” value [7, 27] of the same compound?
A: Its value is 0.

Q: What about the “Plant response rating, Rice” value [7, 28] of the same compound?
A: Its value is 0.

Q: And the “Foxtail, Giant plant response rating (0 to 100 scale)” value [8, 23]?
A: The value was 20.

Q: What about the “Plant response rating, Foxtail, Giant” value [8, 24] of the same compound?
A: Its value is 100.

Q: What about the “Foxtail, Giant plant response rating” value ([8]; 125 g ai/ha) of the same compound?
A: The value was 20.

Q: And the “Foxtail, Giant plant response rating” value ([8]; 500 g ai/ha)?
A: Its value is 20.

Q: And the “Sedge, Umbrella plant response rating” value [9]?
A: The value was 80.

Q: What about the “Ducksalad plant response rating” value [10] of the same compound?
A: Its value is 90.

Q: And the “Ducksalad plant response rating” value [11, 25]?
A: Its value is 0.

Q: And the “Ducksalad plant response rating” value [11, 26]?
A: The value was 0.

Q: What about the “Ducksalad plant response rating” value [11, 27] of the same compound?
A: The value was 0.

Q: What about the “Plant response rating, Ducksalad” value [11, 28] of the same compound?
A: The value was 80.

Q: And the “Corn plant response rating (0 to 100 scale)” value [12, 23]?
A: The value was 0.

Q: What about the “Plant response rating, Corn” value [12, 24] of the same compound?
A: The value was 40.

Q: And the “Corn plant response rating” value ([12]; 125 g ai/ha)?
A: Its value is 20.

Q: And the “Corn plant response rating” value ([12]; 500 g ai/ha)?
A: The value was 20.

Q: And the “Lambsquarters plant response rating (0 to 100 scale)” value [13, 23]?
A: Its value is 50.

Q: What about the “Plant response rating, Lambsquarters” value [13, 24] of the same compound?
A: The value was 100.

Q: What about the “Lambsquarters plant response rating” value ([13]; 125 g ai/ha) of the same compound?
A: Its value is 70.

Q: And the “Lambsquarters plant response rating” value ([13]; 500 g ai/ha)?
A: Its value is 90.

Q: What about the “Sedge, Umbrella plant response rating” value [14, 25] of the same compound?
A: The value was 10.

Q: And the “Sedge, Umbrella plant response rating” value [14, 26]?
A: Its value is 20.

Q: What about the “Sedge, Umbrella plant response rating” value [14, 27] of the same compound?
A: Its value is 80.

Q: What about the “Plant response rating, Sedge, Umbrella” value [14, 28] of the same compound?
A: Its value is 85.

Q: And the “Barnyardgrass plant response rating (0 to 100 scale)” value [15, 23]?
A: Its value is 30.

Q: And the “Plant response rating, Barnyardgrass” value [15, 24]?
A: The value was 90.

Q: And the “Barnyardgrass plant response rating” value ([15]; 125 g ai/ha)?
A: Its value is 0.

Q: And the “Barnyardgrass plant response rating” value ([15]; 500 g ai/ha)?
A: Its value is 10.

Q: And the “Oat, Wild plant response rating” value ([16]; 125 g ai/ha)?
A: Its value is 20.

Q: And the “Oat, Wild plant response rating” value ([16]; 500 g ai/ha)?
A: Its value is 30.

Q: What about the “Rice plant response rating” value [17] of the same compound?
A: The value was 80.

Q: And the “Wheat plant response rating” value ([18]; 125 g ai/ha)?
A: The value was 0.

Q: What about the “Wheat plant response rating” value ([18]; 500 g ai/ha) of the same compound?
A: The value was 0.

Q: And the “Pigweed plant response rating (0 to 100 scale)” value [19, 23]?
A: Its value is 30.

Q: What about the “Plant response rating, Pigweed” value [19, 24] of the same compound?
A: The value was 100.

Q: And the “Pigweed plant response rating” value ([19]; 125 g ai/ha)?
A: Its value is 40.

Q: And the “Pigweed plant response rating” value ([19]; 500 g ai/ha)?
A: Its value is 90.

Q: What about the “Barnyardgrass plant response rating” value [20, 25] of the same compound?
A: Its value is 0.

Q: What about the “Barnyardgrass plant response rating” value ([20]; 125 g ai/ha, scale of 0 to 100, 0 is no effect, 100 is complete control) of the same compound?
A: Its value is 0.

Q: What about the “Barnyardgrass plant response rating” value [20, 27] of the same compound?
A: The value was 0.

Q: What about the “Plant response rating, Barnyardgrass” value [20, 28] of the same compound?
A: The value was 0.

Q: What about the “Morningglory plant response rating (0 to 100 scale)” value [21, 23] of the same compound?
A: The value was 0.

Q: And the “Plant response rating, Morningglory” value [21, 24]?
A: Its value is 20.

Q: What about the “Morningglory plant response rating” value ([21]; 125 g ai/ha) of the same compound?
A: Its value is 20.

Q: What about the “Morningglory plant response rating” value ([21]; 500 g ai/ha) of the same compound?
A: Its value is 20.

Q: And the “Rice plant response rating (0 to 100 scale)” value ([22]; 125 g ai/ha, 0 = no effect, 100 = complete control)?
A: Its value is 40.

Q: What about the “Plant response rating, Rice” value ([22]; 500 g ai/ha, visual rating 0-100, 0 no effect, 100 complete control) of the same compound?
A: Its value is 70.
